Values after ≈ are worked out from the molar mass of the structure shown. Active and inactive are the calls of the source. The rule behind the calls is not given here.
Tests used:
Assay type in all cases: functional
[1] = tested on: Trichophyton mentagrophytes; assay: Antifungal activity against Trichophyton mentagrophytes IFO 40996 assessed as growth inhibition at 37 degC for 48 hr; details: IFO 40996, 48 h
Trichophyton rubrum [2] = assay: Antifungal activity against Trichophyton rubrum IFO 9185 assessed as growth inhibition at 37 degC for 48 hr
Aspergillus fumigatus [3] = assay: Antifungal activity against Aspergillus fumigatus HIC 6094 assessed as growth inhibition at 37 degC for 48 hr; details: HIC 6094, 48 h
Candida albicans [4] = assay: Antifungal activity against Candida albicans ATCC 10231 assessed as growth inhibition at 37 degC for 48 hr; details: ATCC 10231, 48 h
[5] = tested on: Trichophyton mentagrophytes; assay: Antifungal activity against Trichophyton mentagrophytes IFO 40996 assessed as growth inhibition at 300 ug/disc at 37 degC for 48 hr; details: IFO 40996, 48 h, read-out: IZ
Trichophyton rubrum [6] = assay: Antifungal activity against Trichophyton rubrum IFO 9185 assessed as growth inhibition at 300 ug/disk at 37 degC for 48 hr; details: IFO 9185, 48 h, read-out: IZ
Aspergillus fumigatus [7] = assay: Antifungal activity against Aspergillus fumigatus HIC 6094 assessed as growth inhibition at 300 ug/disc at 37 degC for 48 hr; details: for zone of inhibition at 300 µg/disc: HIC 6094, 48 h, read-out: IZ
Candida albicans [8] = assay: Antifungal activity against Candida albicans ATCC 10231 assessed as growth inhibition at 300 ug/disk at 37 degC for 48 hr; details: ATCC 10231, 48 h, read-out: IZ
[9] = tested on: Chromobacterium violaceum; assay: Antibacterial activity against Chromobacterium violaceum MTCC 2656 assessed as growth arrest at 37 degC for 24 hr; details: MTCC 2656, 24 h
Klebsiella aerogenes [10] = assay: Antibacterial activity against Enterobacter aerogenes MTCC 39 assessed as growth arrest at 37 degC for 24 hr; details: MTCC 39, 24 h
Pseudomonas aeruginosa [11] = assay: Antibacterial activity against Pseudomonas aeruginosa MTCC 741 assessed as growth arrest at 37 degC for 24 hr; details: MTCC 741, 24 h
Staphylococcus aureus [12] = assay: Antibacterial activity against Staphylococcus aureus MTCC 96 assessed as growth arrest at 37 degC for 24 hr; details: MTCC 96, 24 h
[13] = tested on: Lysinibacillus sphaericus; assay: Antibacterial activity against Lysinibacillus sphaericus MTCC 11 assessed as growth arrest at 37 degC for 24 hr; details: MTCC 11, 24 h
Bacillus subtilis [14] = assay: Antibacterial activity against Bacillus subtilis MTCC 441 assessed as growth arrest at 37 degC for 24 hr; details: MTCC 441, 24 h
[15] = tested on: Chromobacterium violaceum; assay: Antibacterial activity against Chromobacterium violaceum MTCC 2656 assessed as inhibition zones at 300 ug/disk at 37 degC for 24 hr; details: MTCC 2656, 24 h, read-out: IZ
Klebsiella aerogenes [16] = assay: Antibacterial activity against Enterobacter aerogenes MTCC 39 assessed as inhibition zones at 300 ug/disk at 37 degC for 24 hr; details: MTCC 39, 24 h, read-out: IZ
Pseudomonas aeruginosa [17] = assay: Antibacterial activity against Pseudomonas aeruginosa MTCC 741 assessed as inhibition zones at 300 ug/disk at 37 degC for 24 hr; details: MTCC 741, 24 h, read-out: IZ
Staphylococcus aureus [18] = assay: Antibacterial activity against Staphylococcus aureus MTCC 96 assessed as inhibition zones at 300 ug/disc at 37 degC for 24 hr; details: MTCC 96, 24 h, read-out: IZ
[19] = tested on: Lysinibacillus sphaericus; assay: Antibacterial activity against Lysinibacillus sphaericus MTCC 11 assessed as inhibition zones at 300 ug/disk at 37 degC for 24 hr; details: MTCC 11, 24 h, read-out: IZ
Bacillus subtilis [20] = assay: Antibacterial activity against Bacillus subtilis MTCC 441 assessed as inhibition zones at 300 ug/disk at 37 degC for 24 hr; details: MTCC 441, 24 h, read-out: IZ
Caenorhabditis elegans = assay: Nematicidal activity against Caenorhabditis elegans assessed as immobility; details: read-out: LD50 (the source's name)
[21] = tested on: Ditylenchus myceliophagus; assay: Nematicidal activity against Ditylenchus myceliophagus assessed as immobility; details: read-out: LD50 (the source's name)

Structure (SMILES)	MBC [1] [µg/mL]	MIC [1] [µg/mL]	MBC (Aspergillus fumigatus [3]) [µg/mL]	MIC (Aspergillus fumigatus [3]) [µg/mL]	MBC (Candida albicans [4]) [µg/mL]	MIC (Candida albicans [4]) [µg/mL]	zone of inhibition at 300 µg/disc [5] [mm]	zone of inhibition at 300 µg/disc (Trichophyton rubrum [6]) [mm]	zone of inhibition at 300 µg/disc (Candida albicans [8]) [mm]	MBC [9] [µg/mL]	MIC [9] [µg/mL]	MBC (Klebsiella aerogenes [10]) [µg/mL]	MIC (Klebsiella aerogenes [10]) [µg/mL]	MBC (Pseudomonas aeruginosa [11]) [µg/mL]	MIC (Pseudomonas aeruginosa [11]) [µg/mL]	MBC (Staphylococcus aureus [12]) [µg/mL]	MIC (Staphylococcus aureus [12]) [µg/mL]	MBC [13] [µg/mL]	MIC [13] [µg/mL]	MBC (Bacillus subtilis [14]) [µg/mL]	further results
COc1ccc(Cc2ccc(OC)c(C3SC4C(=NN(c5ccccc5)C4c4ccc(F)cc4)N3c3ccc([N+](=O)[O-])cc3)c2)cc1C1SC2C(=NN(c3ccccc3)C2c2ccc(F)cc2)N1c1ccc([N+](=O)[O-])cc1 (stereo not drawn)	12.5 (≈ 11.7 µM)	12.5 (≈ 11.7 µM)	50 (≈ 46.9 µM)	12.5 (≈ 11.7 µM)	25 (≈ 23.5 µM)	12.5 (≈ 11.7 µM)	9	10	8	50 (≈ 46.9 µM)	25 (≈ 23.5 µM)	25 (≈ 23.5 µM)	12.5 (≈ 11.7 µM)	25 (≈ 23.5 µM)	6.25 (≈ 5.87 µM)	25 (≈ 23.5 µM)	6.25 (≈ 5.87 µM)	12.5 (≈ 11.7 µM)	6.25 (≈ 5.87 µM)	25 (≈ 23.5 µM)	MBC (Trichophyton rubrum [2]; IFO 9185, 48 h): 25 µg/mL (≈ 23.5 µM); MIC (Trichophyton rubrum [2]; IFO 9185, 48 h): 6.25 µg/mL (≈ 5.87 µM); zone of inhibition at 300 µg/disc (Aspergillus fumigatus [7]): 11 mm; MIC (Bacillus subtilis [14]): 12.5 µg/mL (≈ 11.7 µM); zone of inhibition at 300 µg/disc [15]: 11 mm; zone of inhibition at 300 µg/disc (Klebsiella aerogenes [16]): 24 mm; zone of inhibition at 300 µg/disc (Pseudomonas aeruginosa [17]): 11 mm; zone of inhibition at 300 µg/disc (Staphylococcus aureus [18]): 20 mm; zone of inhibition at 300 µg/disc [19]: 22 mm; zone of inhibition at 300 µg/disc (Bacillus subtilis [20]): 21 mm; LC50 (Caenorhabditis elegans): 620 µg/mL (≈ 582 µM); LC50 [21]: 800 µg/mL (≈ 751 µM)
COc1ccc(Cc2ccc(OC)c(C3SC4C(=NN(C(C)C)C4c4ccc(F)cc4)N3c3ccc(Cl)cc3)c2)cc1C1SC2C(=NN(C(C)C)C2c2ccc(F)cc2)N1c1ccc(Cl)cc1 (stereo not drawn)	50 (≈ 51.2 µM)	25 (≈ 25.6 µM)	25 (≈ 25.6 µM)	25 (≈ 25.6 µM)	25 (≈ 25.6 µM)	12.5 (≈ 12.8 µM)	12	11	10	25 (≈ 25.6 µM)	12.5 (≈ 12.8 µM)	50 (≈ 51.2 µM)	25 (≈ 25.6 µM)	25 (≈ 25.6 µM)	25 (≈ 25.6 µM)	25 (≈ 25.6 µM)	12.5 (≈ 12.8 µM)	50 (≈ 51.2 µM)	25 (≈ 25.6 µM)	25 (≈ 25.6 µM)	MBC (Trichophyton rubrum [2]): inactive; MIC (Trichophyton rubrum [2]): inactive; inhibition zone (IZ) (Aspergillus fumigatus [7]): inactive; MIC (Bacillus subtilis [14]): 12.5 µg/mL (≈ 12.8 µM); zone of inhibition at 300 µg/disc [15]: 16 mm; zone of inhibition at 300 µg/disc (Klebsiella aerogenes [16]): 20 mm; zone of inhibition at 300 µg/disc (Pseudomonas aeruginosa [17]): 13 mm; zone of inhibition at 300 µg/disc (Staphylococcus aureus [18]): 13 mm; zone of inhibition at 300 µg/disc [19]: 11 mm; zone of inhibition at 300 µg/disc (Bacillus subtilis [20]): 12 mm; LC50 (Caenorhabditis elegans): 670 µg/mL (≈ 686 µM); LC50 [21]: 520 µg/mL (≈ 533 µM)
COc1ccc(Cc2ccc(OC)c(C3SC4C(=NN(C)C4c4ccc(F)cc4)N3c3ccc([N+](=O)[O-])cc3)c2)cc1C1SC2C(=NN(C)C2c2ccc(F)cc2)N1c1ccc([N+](=O)[O-])cc1 (stereo not drawn)	25 (≈ 26.6 µM)	12.5 (≈ 13.3 µM)	25 (≈ 26.6 µM)	12.5 (≈ 13.3 µM)	25 (≈ 26.6 µM)	12.5 (≈ 13.3 µM)	14	15	21	12.5 (≈ 13.3 µM)	12.5 (≈ 13.3 µM)	25 (≈ 26.6 µM)	12.5 (≈ 13.3 µM)	12.5 (≈ 13.3 µM)	12.5 (≈ 13.3 µM)	25 (≈ 26.6 µM)	12.5 (≈ 13.3 µM)	25 (≈ 26.6 µM)	12.5 (≈ 13.3 µM)	6.25 (≈ 6.64 µM)	MBC (Trichophyton rubrum [2]; IFO 9185, 48 h): 25 µg/mL (≈ 26.6 µM); MIC (Trichophyton rubrum [2]; IFO 9185, 48 h): 12.5 µg/mL (≈ 13.3 µM); zone of inhibition at 300 µg/disc (Aspergillus fumigatus [7]): 14 mm; MIC (Bacillus subtilis [14]): 6.25 µg/mL (≈ 6.64 µM); zone of inhibition at 300 µg/disc [15]: 18 mm; zone of inhibition at 300 µg/disc (Klebsiella aerogenes [16]): 19 mm; zone of inhibition at 300 µg/disc (Pseudomonas aeruginosa [17]): 12 mm; zone of inhibition at 300 µg/disc (Staphylococcus aureus [18]): 21 mm; zone of inhibition at 300 µg/disc [19]: 20 mm; zone of inhibition at 300 µg/disc (Bacillus subtilis [20]): 16 mm; LC50 (Caenorhabditis elegans): 200 µg/mL (≈ 213 µM); LC50 [21]: 180 µg/mL (≈ 191 µM)
COc1ccc(Cc2ccc(OC)c(C3SC4C(=NN(c5ccc(Cl)cc5)C4c4ccc(F)cc4)N3c3ccc(C)cc3)c2)cc1C1SC2C(=NN(c3ccc(Cl)cc3)C2c2ccc(F)cc2)N1c1ccc(C)cc1 (stereo not drawn)	12.5 (≈ 11.7 µM)	6.25 (≈ 5.83 µM)	12.5 (≈ 11.7 µM)	6.25 (≈ 5.83 µM)	25 (≈ 23.3 µM)	12.5 (≈ 11.7 µM)	10	11	13	25 (≈ 23.3 µM)	12.5 (≈ 11.7 µM)	50 (≈ 46.6 µM)	12.5 (≈ 11.7 µM)	25 (≈ 23.3 µM)	6.25 (≈ 5.83 µM)	25 (≈ 23.3 µM)	12.5 (≈ 11.7 µM)	25 (≈ 23.3 µM)	12.5 (≈ 11.7 µM)	25 (≈ 23.3 µM)	MBC (Trichophyton rubrum [2]; IFO 9185, 48 h): 12.5 µg/mL (≈ 11.7 µM); MIC (Trichophyton rubrum [2]; IFO 9185, 48 h): 6.25 µg/mL (≈ 5.83 µM); zone of inhibition at 300 µg/disc (Aspergillus fumigatus [7]): 11 mm; MIC (Bacillus subtilis [14]): 12.5 µg/mL (≈ 11.7 µM); zone of inhibition at 300 µg/disc [15]: 21 mm; zone of inhibition at 300 µg/disc (Klebsiella aerogenes [16]): 18 mm; zone of inhibition at 300 µg/disc (Pseudomonas aeruginosa [17]): 11 mm; zone of inhibition at 300 µg/disc (Staphylococcus aureus [18]): 29 mm; zone of inhibition at 300 µg/disc [19]: 17 mm; zone of inhibition at 300 µg/disc (Bacillus subtilis [20]): 17 mm; LC50 (Caenorhabditis elegans): 360 µg/mL (≈ 336 µM); LC50 [21]: 240 µg/mL (≈ 224 µM)
